System: FluB polymerase K631A+R634A
Assay type: binding, human influenza B/Memphis/13/03

In the case of “Pol II CTD peptide, four heptad repeats Tyr-Ser-Pro-Thr-SerP-Pro-Ser (28 amino acids), FAM-labelled at the N-terminal end for binding assays (Covalab) [28-mer SeP5 peptide]”, the “decrease in the binding affinity compared to wild type” value is reported as 2.5 fold.
